# Columns and labels:
# Type in all cases: cell-based
# [1] = test system: ARPE-19 (human retinal pigment epithelial cell line); assay: MTS assay on Pentablock Polymer B, ARPE 19; settings: ARPE 19, Triton X positive control
# Protocol: The cytotoxicity and biocompatibility of the Pentablock Polymer A and Pentablock Polymer B were investigated in several cell lines. ARPE-19 (human retinal pigment epithelial cell line), SIRC (rabbit corneal cell line), and RAW 264.7 (mouse macrophage cell line) were obtained from American Type Culture Collection (“ATCC”). ARPE-19 cells were cultured in Dubelcco's modified Eagle's medium (“DMEM/F12”) supplemented with 10% fetal bovine serum (“FBS”), 100 U/mL penicillin and 100 μg/mL of streptomycin. SIRC cells were cultured in minimum essential medium (“MEM”) and supplemented with 10% FBS, 100 U/mL of penicillin and 100 μg/mL of streptomycin. RAW 264.7 (Mouse macrophage cells) cells were cultured in DMEM/[…] with 10% FBS, 10% of nonessential amino acids, 100 U/mL penicillin and 100 μg/mL of streptomycin. […] The cell cultures were exposed directly to different concentrations of Pentablock Polymer A and Pentablock Polymer B. Pentablock Polymer B: Cytotoxicity for Pentablock Polymer B was performed at different concentration ranging from 0.5-10 mg/ml. The plates were seeded with cell density of 10,000 cells/100 μL. […] After incubation, the absorbance of each well was measured at 450 nm by ELISA plate reader. The absorbance is directly proportional to viability of cells.
# PCEC = assay: MTS assay on Pentablock Polymer B, PCEC; settings: Triton X positive control
# Protocol: Pentablock Polymer B: Cytotoxicity for Pentablock Polymer B was performed at different concentration ranging from 0.5-10 mg/ml. The plates were seeded with cell density of 10,000 cells/100 μL. After 24 hours of incubation fresh medium containing hydrogel of different concentration ranging from 0.5-10 mg/ml were added and further incubated for 24 hours. MTS assay is based on the reduction of the tetrazolium salt (yellow) to fromazone (purple) by mitochondrial enzymes of metabolic active cells. The amount of the fromazone is directly proportional to viable cells. In MTS assay Trioton X treated cells were served as […]. […] After incubation, the absorbance of each well was measured at 450 nm by ELISA plate reader. The absorbance is directly proportional to viability of cells.
# [2] = test system: SIRC (rabbit corneal cell line); assay: MTS assay on Pentablock Polymer A, SIRC; settings: Triton X positive control
# Protocol: (§1) The cytotoxicity and biocompatibility of the Pentablock Polymer A and Pentablock Polymer B were investigated in several cell lines. ARPE-19 (human retinal pigment epithelial cell line), SIRC (rabbit corneal cell line), and RAW 264.7 (mouse macrophage cell line) were obtained from American Type Culture Collection (“ATCC”). ARPE-19 cells were cultured in Dubelcco's modified Eagle's medium (“DMEM/F12”) supplemented with 10% fetal bovine serum (“FBS”), 100 U/mL penicillin and 100 μg/mL of streptomycin. SIRC cells were cultured in minimum essential medium (“MEM”) and supplemented with 10% FBS, 100 U/mL of penicillin and 100 μg/mL of streptomycin. RAW 264.7 (Mouse macrophage cells) cells were cultured in DMEM/F12supplemented with 10% FBS, 10% of nonessential amino acids, 100 U/mL penicillin and 100 μg/mL of streptomycin. The pH of the medium was adjusted to 7.4 and cells were incubated in humidified atmosphere at 37° C. temperature with 5% CO2 environment. The cell cultures were exposed directly to different concentrations of Pentablock Polymer A and Pentablock Polymer B. […]
# (§2) MTS assay is based on the reduction of the tetrazolium salt (yellow) to fromazone (purple) by mitochondrial enzymes of metabolic active cells. […] After incubation, the absorbance of each well was measured at 450 nm by ELISA plate reader. The absorbance is directly proportional to viability of cells.
# [3] = test system: RAW 264.7 (mouse macrophage cell line); assay: MTS assay on Pentablock Polymer A, RAW 264.7; settings: RAW 264.7, Triton X positive control
# Protocol: as §1, §2
substance,measurement,setting,value
Triton X,MTS assay (absorbance proportional to viability of cells),[1],0.000
same,MTS assay (absorbance proportional to viability of cells),PCEC,0.000
same,MTS assay (absorbance proportional to viability of cells),[2],0
same,MTS assay (absorbance proportional to viability of cells),[3],0

# — US9011927B2, “Pentablock polymers” (The Curators of the University of Missouri, priority 2010, dated 2015)
